Results published in US20260216343A1, “CONJUGATE, MICELLE AND ANTICANCER AGENT” (TOHOKU UNIVERSITY, priority 2023, published 2026).
Structures can show the parent of a compound that is named as a salt.

Assays:
[1] = Systemic side effect markers in cancer-bearing mice; format: in vivo, Keap1^FB/FB:Kras^G12D mice
Text: (§1) Monocytes were isolated from the bone marrow, the spleen, and the thymus using Ficoll-Paque PREMIUM 1.084 (Cytiva 17-5446-02). The monocytes were stained with allophycocyanin-eFluor 780 conjugate anti-c-Kit (Invitrogen; Clone 2B8), Brilliant Violet 421 conjugate anti-B220 (Biolegend; Clone RA2-6B2), phycoerythrin conjugate anti-F4/80 (Biolegend; Clone BM8), fluorescein isothiocyanate conjugate anti-Ly6G (Biolegend; Clone 1A8), Brilliant Violet 421 conjugate anti-CD11b (Biolegend; Clone M1/70), fluorescein isothiocyanate conjugate anti-CD71 (eBiosciences; CloneR17217), phycoerythrin conjugate anti-Ter119 (eBiosciences; Clone TER-119), PE-Cyanine7 conjugate anti-CD4 (Invitrogen; CloneGK1.5), and allophycocyanin conjugate anti-CD8 (Biolegend; Clone S3-6.7). The dead cells were removed using propidium iodide staining. The analysis was made using FACSVerse (BD Biosciences). The data were analyzed using FlowJo software (BD Biosciences).
Because HF is slowly and continuously released from HFm through encapsulation of HF in polymer micelles, it was supposed that HFm may act as a far safer drug than HF. Thus, because the MTD of HF was 0.75 mg/kg bw, various side effect markers were examined in cancer-bearing model mice treated with 0.75 mg/kg bw of HFm and compared with those of the mice treated with the same amount of HF.
(§2) After KRAS-driven lung adenocarcinoma was grown for 17 weeks, the mice were treated with saline, HF (0.25 mg/kg), or HFm (0.25 mg/kg) every two days four times in total (FIG. 7A).

WT-GFP cells (Hepa1) = test: Cell fluorescence analysis (relative fluorescence as cell survival) after HF treatment; format: cell-based; conditions: HF at various doses up to 50 nM, 48 hours
Protocol: (§3) WT-GFP and Keap1-mCherry Hepa1 cells were prepared in the same manner as in Mol Cell Biol., 2020 Oct 26, 40(22). The cells were maintained in Dulbecco's modified Eagle's medium (DMEM) containing 10% (v/v) fetal bovine serum and antibiotics (penicillin-streptomycin) at 37° C. and 5% CO2.
(§4) For cell fluorescence analysis, 4×10^4 WT-GFP cells and 2×10^4 Keap1-mCherry Hepa1 cells were cultured separately on day −1 in a black 96-well plate (Corning; number 3904). On day 0, HF or saline was introduced at various concentrations, and then the plate was returned to an incubator at 37° C. until day 2. The fluorescence intensities of the cells were measured using a PHERAstar FS microplate reader (BMG Labtech, Ortenberg, Germany).
(§5) HF has been reported to suppress Nrf2 accumulation in cells (FIG. 1A). To examine the tumor suppressive role of HF in Nrf2-activated tumor cells, enhanced green fluorescent protein (EGFP)-expressing wild type (WT) Hepa1 cells (hereinafter also referred to as “WT-GFP cells”) and mCherry-expressing Keap1 knockout cells (hereinafter also referred to as “Keap1 KO-mCherry cells”) were treated with HF. Both isogenic cell lines used were the same as those in Mol Cell Biol., 2020 Oct 26, 40(22). […] It has been shown in Mol Cell Biol., 2020 Oct 26, 40(22) that there is a correlation between the relative fluorescence intensity and the cell survival rate.

[2] = system: Keap1 KO-mCherry cells (Hepa1); test: as above; format: cell-based; conditions: HF at various doses up to 50 nM, 48 hours
Protocol: as §3, §4, §5

[3] = system: Nrf2 protein in WT-GFP cells; test: Immunoblotting of Nrf2 protein after HF treatment; format: cell-based; conditions: 50 nM HF, 0-18 hours, whole cell lysates
Protocol: (§6) For analyzing cultured cells, 1×10^6 WT-GFP and Keap1-mCherry Hepa1 cells were separately seeded on day −1 and treated with 50 nM HF on the next day (day 0). Whole cell lysates were prepared by lysing the cells with SDS buffer (0.25 M Tris-HCl (pH 6.8), 8% (w/v) SDS, and 20% glycerol) and collected 0, three, six, 12, and 18 hours after the HF treatment. An anti-Nrf2 antibody (Cell Signaling Technology, #12721, 1:500 dilution) and an anti-α-tubulin antibody (Sigma, T9026, 1:1000 dilution) were used.
(§7) To examine whether the selective decrease in the Keap1 KO-mCherry cells was caused by suppression of Nrf2 accumulation, Nrf2 protein was analyzed by immunoblotting at various points in time after isogenic Hepa1 cells were exposed to HF. […] The above experiment was repeated, and densitometry measurement of immunoblotting bands was conducted (FIG. 1F).

[4] = system: Nrf2 protein in Keap1 KO-mCherry cells; test: Immunoblotting of Nrf2 protein after HF treatment; format: cell-based; conditions: 50 nM HF, 0-18 hours, whole cell lysates
Protocol: as §6, §7

[5] = Dose-dependent in vivo toxicity / maximum tolerated dose of HF; set-up: species or system WT C57BL/6 mice
Text: (§8) Keap1^FB/FB:Kras^G12D mice were produced in the same manner as in Cancer Res, 15 Aug. 2020, 80(16):3331-3344, Genes & Dev., 2001, 15:3243-3248, and Am J Respir Cell Mol Biol., 2010 May, 42(5):524-36. All the mice used in this test had the C57BL/6J background. Saline, HF, and HFm were intravenously injected to the mice. All the in vivo experiments were approved by the animal welfare committee of Tohoku University.
as §1
Preclinical animal testing was conducted to determine the maximum tolerated dose (hereinafter also referred to as MTD) of HF. […] Thus, in this test, HF was administered to WT C57BL/6 mice (eight to 12 weeks old, both females and males) incrementally in the range of 0.25 mg/kg to 1 mg/kg (FIG. 2A). HF was administered to the tail veins every two days four times in total.

[6] = system: Nrf2-activated lung adenocarcinoma; test: Tumor suppression in Kras-driven Nrf2-activated lung adenocarcinoma mouse model; format: in vivo, Keap1^FB/FB:Kras^G12D mice
Text: as §8
Adeno-Cre was purchased from VectorBioLabs (Ad-Cre-GFP, catalog no. 1700). Adeno-Cre was administered in the same manner as in Nat Protoc 4, 2009, 1064-1072. Briefly, 1×10^7 plaque-forming units of Adeno-Cre were mixed with Eagle's minimum essential medium (MEM) and calcium chloride. The mixture was incubated on ice for 20 minutes and used for intranasal dropping within one hour of the preparation. Droplets containing the Adeno-Cre mixture were administered to the nostrils of anesthetized mice (eight to 12 weeks old) using a pipette. The mice were allowed to inhale the droplets gradually.
The lung tissues were fixed in 10% formalin (Mildform 10N; FUJIFILM Wako Pure Chemical Corporation, Osaka) and embedded in paraffin. The slices were stained with hematoxylin-eosin (HE) or elastica-Masson (EM). To measure the tumor areas, five slices were cut out with a certain distance and stained with HE. The tumor areas were measured using ImageJ software (NIH).
To examine whether administration of HF or HFm could suppress the progress of Nrf2-activated non-small-cell lung cancer (NSCLC), a Kras-driven lung adenocarcinoma mouse model was used (Genes&Dev., 2001, 15:3243-3248). A mouse having a loxP-Stop-loxP Kras^G12D-knocked-in allele (hereinafter also referred to as “Kras mouse”) was mated with a mouse having a Keap1-flox allele in the loxP site including the third and fourth exons (hereinafter also referred to as “Keap1^FB”) (Am J Respir Cell Mol Biol., 2010 May, 42(5):524-36), and thus a Keap1^FB/FB:Kras^G12D complex mouse was obtained (Cancer Res, 15 Aug. 2020, 80(16):3331-3344). Through Cre recombination by intranasal infection with Adeno-Cre, activation of Kras cancer gene and deletion of Keap1 exons were achieved simultaneously. By this operation, Nrf2-activated lung adenocarcinoma was successfully imitated in mice.
Then, after the tumor was grown for 17 weeks, administration of HF or HFm was started. HF or HFm was intravenously administered every two days, and injection was conducted four times in total. Because the MTD of HF was determined to be 0.75 mg/kg bw (FIG. 2), it was decided to use 0.75 mg/kg bw of HF or HFm in this cancer-bearing mouse experiment. The mice were sacrificed on the eighth day. Various characteristics of the lung tumors were analyzed, and the effectiveness of HF and HFm changing the tumor burden was evaluated (FIG. 4A).
Next, by EM staining of the lung slices, the influence of HF and HFm on the malignancy of tumors was examined (FIG. 4C, bottom). Using images of the slices, the lung lesions were evaluated according to the guidelines of the system of the 2015 World Health Organization Classification of Lung Tumors (Front Oncol., 2017 Aug 28, 7: 193). Briefly, lung tumors include two types, namely a lepidic lesion and a papillary lesion. A lepidic lesion indicates in situ proliferation of cells along the alveolar walls (arrows with “x”), while a papillary lesion indicates proliferation away from the alveolar walls (arrows with “y”). A tumor with many papillary lesions is called Grade II, and it is known that the prognoses of a patient having many papillary tumors is poor compared to that of a patient having many lepidic tumors (Grade I). When the main component of the tumor is composed of a solid sheet and when no recognizable lepidic or papillary pattern is found, the tumor is classified as a solid tumor (Grade III).
as §2

[7] = 0.75 mg/kg bw iv four times, vs. HFm or saline
[8] = 0.25 to 0.75 mg/kg iv four times
[9] = 0.75 mg/kg bw iv four times, vs. saline

SMILES: O=C(CC1NCCCC1O)Cn1cnc2cc(Br)c(Cl)cc2c1=O (stereo not shown) [HF, Halofuginone hydrobromide]
- erythrocyte count in peripheral blood ([1]; 0.25 mg/kg bw iv four times): did not affect
- leukocyte count in peripheral blood ([1]; 0.25 mg/kg bw iv four times): decreased the leukocyte count with significance
- body weight changes ([1]; 0.25 mg/kg bw iv four times, vs. other groups): equivalent
- atrophy of the thymus ([1]; 0.75 mg/kg bw iv four times): remarkable
- erythroblasts (Ter119+CD71+) of the spleen ([1]; 0.75 mg/kg bw iv four times): decreased with significance
- erythrocytes in peripheral blood ([1]; 0.75 mg/kg bw iv four times): decreased
- hematocrit levels ([1]; 0.75 mg/kg bw iv four times): decreased
- leukocyte count in peripheral blood ([1]; 0.75 mg/kg bw iv four times): significant decrease
- spleen cell count ([1]; 0.75 mg/kg bw iv four times): decreased with significance
- spleen weight ([1]; 0.75 mg/kg bw iv four times): decreased with significance
- thymus CD4 single-positive cells (CD4+CD8-) count ([1]; 0.75 mg/kg bw iv four times): decreased
- thymus double-negative cells (CD4-CD8-) count ([1]; 0.75 mg/kg bw iv four times): decreased
- thymus double-positive cells (CD4+CD8+) count ([1]; 0.75 mg/kg bw iv four times): decreased
- thymus total cell count ([1]; 0.75 mg/kg bw iv four times): decreased significantly
- total cell count of the bone marrow ([1]; 0.75 mg/kg bw iv four times): decreased significantly
- bone marrow B cells (B220+) count [1, 7]: decreased significantly
- bone marrow macrophages (CD11b+F4/80+) count [1, 7]: decreased significantly
- bone marrow neutrophils (CD11b+Ly6G+) count [1, 7]: decreased significantly
- bone marrow precursor cells (c-Kit+) count [1, 7]: decreased significantly
- thymus CD8 single-positive cells (CD4-CD8+) ([1]; 0.75 mg/kg bw iv four times, vs. saline or HFm): tendency towards a lower frequency
- count of WT-GFP cells (relative fluorescence intensity) (WT-GFP cells (Hepa1)): did not decrease substantially
- count of Keap1 KO-mCherry cells (relative fluorescence intensity) [2]: decreased significantly in a concentration-dependent manner
- Nrf2 protein level [3]: not detected at all the points in time
- Nrf2 protein level [4]: depleted rapidly
- bone marrow B cell count (B220+) ([5]; 0.75 mg/kg iv four times): decreased
- erythroblasts (Ter119+CD71+) of the spleen ([5]; 0.75 mg/kg iv four times): most of the erythroblasts disappeared
- acute condition of mice ([5]; 1 mg/kg iv every two days): showed a sign of acute disorder after two injections and were moribund
- body weight change ([5]; 1 mg/kg iv, day 1 vs. day 4): −13.4%
- mortality ([5]; 1 mg/kg iv, eight mice, after second administration): one mouse in the administration group died
- bone marrow precursor cell count (c-Kit+) [5, 8]: did not change largely
- bone marrow total cell count [5, 8]: did not change largely
- erythroblasts (Ter119+CD71+) of the spleen [5, 8]: decreased largely in a dose-dependent manner
- erythrocyte counts in peripheral blood [5, 8]: equivalent in all the groups
- leukocyte count in peripheral blood [5, 8]: decreased in a dose-dependent manner
- platelet counts in peripheral blood [5, 8]: equivalent in all the groups
- thymus weight [5, 8]: decreased with significance in a dose-dependent manner
- whole cells of the spleen [5, 8]: decreased largely in a dose-dependent manner
- thymus CD4 single-positive (CD4+CD8-) cells ([5]; HF iv four times): decreased
- thymus CD8 single-positive (CD4-CD8+) cells ([5]; HF iv four times): tendency towards a decrease
- total cells of the thymus ([5]; HF iv four times): decreased
- spleen weight ([5]; increasing HF dose, iv four times): decreased stepwisely
- maximum tolerated dose (MTD) ([5]; iv every two days four times): 0.75 mg/kg bw
- number of papillary lesions vs. saline ([6]; 0.25 mg/kg bw iv four times): far smaller
- number of solid tumors vs. saline ([6]; 0.25 mg/kg bw iv four times): smaller with significance
- lung weight vs. saline-treated mice ([6]; 0.75 mg/kg bw iv every two days four times, day 8): lower with significance
- solid adenocarcinomas of Grade III ([6]; 0.75 mg/kg bw iv four times): disappeared completely
- number of lepidic (Grade I) tumors [6, 9]: equivalent numbers
- number of papillary (Grade II) tumors [6, 9]: equivalent numbers
- frequency of the papillary tumors ([6]; 0.75 mg/kg bw iv four times, vs. saline control): lower
- tumor area (HE-stained lung sections) ([6]; 0.75 mg/kg bw iv four times, saline-treated group 21%): 10%
- lung weight decrease (saline vs. treatment) ([6]; high dose (0.75 mg/kg)): 37.6%
- tumor area decrease (saline vs. treatment) ([6]; high dose (0.75 mg/kg)): 9.95%
- lung weight decrease (saline vs. treatment) ([6]; low dose (0.25 mg/kg)): 25.7%
- tumor area decrease (saline vs. treatment) ([6]; low dose (0.25 mg/kg)): 7.42%
- disappearance of solid tumors ([6]; low-dose therapy (0.25 mg/kg bw)): did not disappear completely
